# From US12091393B2, “Small molecule vaccine adjuvant for enhancing or prolonging immune response” (The Regents of the University of California, priority 2018, dated 2024)
# Read-outs that look alike come from different tables or passages of the source.
# Key:
# NF-κB = test: Measurement of NF-κB activation using THP1-Blue NF-κB cells (SEAP); type: cell-based; settings: for activity at 5 µM: 20 h, two point normalized, compound 1 as 200%; for NF-κB activity (SAR discussion, in words): evaluated in both the presence and absence of LPS
# THP-1 cells = test: Cell viability assay (MTT); type: cell-based; settings: compound 5 μM alone, 18 h, normalized to DMSO as 100%
# Protocol: THP-1 cells were plated in 96-well plates (10^5 cells/well) in 100 μL RPMI supplemented with 10% FBS, 100 U/mL penicillin and 100 μg/ml streptomycin. Compounds were dissolved in DMSO at 1 mM stock solution and were further diluted to 10 μM in the assay medium. 100 μL of this solution was added to the cells to obtain a final compound concentration of 5 μM ([…]). After 18 h incubation, a solution of MTT in assay media (0.5 mg/mL) was added to each well and further incubated for 4 to 6 h, followed by addition of cell lysis buffer (15% w/v SDS and 0.12% v/v 12N HCl aqueous solution), incubated overnight, and then absorbance measured at 570 nm using 650 nm as reference using Tecan Infinite M200 plate reader.
# [1] = compound 5 μM + LPS, LPS (10 ng/mL) as 100%, read-out: NF-κB SEAP Compound + LPS % Activation
# [2] = compound 5 μM alone, LPS or DMSO as 100%, read-out: NF-κB SEAP Compound alone % Activation
Structure (SMILES),activity at 5 µM (NF-κB; [1]) [%],activity at 5 µM (NF-κB; [2]) [%],"NF-κB activity (SAR discussion, in words) (NF-κB)",MTT Compound alone % Viability (THP-1 cells) [%]
"CCc1ccc(C)c(-c2csc(NC(=O)c3ccc(S(=O)(=O)N4CCCCC4)cc3)n2)c1 [Compound 12u, N-(4-(5-ethyl-2-methylphenyl)thiazol-2-yl)-4-(piperidin-1-ylsulfonyl)benzamide]",200,216,resulted in activity,–
"CCOc1sc(NC(=O)c2ccc(S(=O)(=O)N3CCCCC3)cc2)nc1-c1cc(C)ccc1C [Compound 18l, N-(4-(2,5-dimethylphenyl)-5-ethoxythiazol-2-yl)-4-(piperidin-1-ylsulfonyl)benzamide]",111,104,partial activity,–
"CC(C)(C)c1csc(NC(=O)c2ccc(S(=O)(=O)N3CCCCC3)cc2)n1 [Compound 12k, N-(4-(tert-butyl)thiazol-2-yl)-4-(piperidin-1-ylsulfonyl)benzamide]",94.1,99.5,None of these molecules had any NF-κB activity,127.74
"C#CCN(C(=O)c1ccc(S(=O)(=O)N2CCCCC2)cc1)c1nc(-c2cc(C)ccc2C)cs1 [Compound 34d, N-(4-(2,5-dimethylphenyl)thiazol-2-yl)-4-(piperidin-1-ylsulfonyl)-N-(prop-2-yn-1-yl)benzamide]",97.7,101,inactive,–
"Cc1cccc(C)c1-c1csc(NC(=O)c2ccc(S(=O)(=O)N3CCCCC3)cc2)n1 [Compound 12p, N-(4-(2,6-dimethylphenyl)thiazol-2-yl)-4-(piperidin-1-ylsulfonyl)benzamide]",209,185,retained activity,99.64
"Cc1ccc(C)c(-c2nc(NC(=O)c3ccc(S(=O)(=O)N4CCCCC4)cc3)sc2-c2ccccc2)c1 [Compound 18i, N-(4-(2,5-dimethylphenyl)-5-phenylthiazol-2-yl)-4-(piperidin-1-ylsulfonyl)benzamide]",98.4,98.3,completely inactive,–
"Cc1ccc(C)c(-c2csc(NC(=O)c3ccc(S(=O)(=O)N4CCCCC4)s3)n2)c1 [Compound 46c, N-(4-(2,5-dimethylphenyl)thiazol-2-yl)-5-(piperidin-1-ylsulfonyl)thiophene-2-carboxamide]",97.2,106,none of these modifications at site D or E were tolerated,–
"Cc1ccc(C)c(-c2cnc(NC(=O)c3ccc(S(=O)(=O)N4CCCCC4)cc3)s2)c1 [Compound 18e, N-(5-(2,5-dimethylphenyl)thiazol-2-yl)-4-(piperidin-1-ylsulfonyl)benzamide]",95.1,98.3,none of these molecules that replaced the thiazole functionality were active,–
"O=C(Nc1nc(-c2cccc3ccccc23)cs1)c1ccc(S(=O)(=O)N2CCCCC2)cc1 [Compound 12q, N-(4-(naphthalen-1-yl)thiazol-2-yl)-4-(piperidin-1-ylsulfonyl)benzamide]",200,198,equally potent,92.71
"CCc1sc(NC(=O)c2ccc(S(=O)(=O)N3CCCCC3)cc2)nc1-c1cc(C)ccc1C [Compound 18r, N-(4-(2,5-dimethylphenyl)-5-ethylthiazol-2-yl)-4-(piperidin-1-ylsulfonyl)benzamide]",179,179,retained activity,103.66
"CCCC#Cc1sc(NC(=O)c2ccc(S(=O)(=O)N3CCC(CCC)CC3)cc2)nc1-c1cc(C)ccc1Br [Compound 65, N-(4-(2-bromo-5-methylphenyl)-5-(pent-1-yn-1-yl)thiazol-2-yl)-4-((4-propylpiperidin-1-yl)sulfonyl)benzamide]",–,–,very potent and showed better potency than compound 1,–
